IC50 and EC50 data for 4 molecules are collected here from ChEMBL document CHEMBL1201862, “PubChem BioAssay data set” (2004).

As usually defined, the IC50 is the point on the concentration scale where inhibition reaches its midpoint. By EC50 is commonly meant the concentration giving half of the maximal effect.

Test [1] deals with T1, Neuropeptide Y receptor type 2 (Homo sapiens, UniProt P49146). Type of test: functional, cell-based.
Test [2] has as its target T2, Neuropeptide Y receptor type 1 (Homo sapiens, UniProt P25929). Type of test: functional.
A short description of test [3]: A High Throughput Confirmatory Assay used to Identify Novel Compounds that Inhibit Mycobacterium Tuberculosis in the absence of Glycerol. The class given is functional.
Test [4] concerns the target T3, Kappa-type opioid receptor (Homo sapiens, UniProt P41145). Type of test: functional.
Test [5] addresses T4, Delta-type opioid receptor (Homo sapiens, UniProt P41143). The test can be described thus: HTS Image-Based Screen for Agonists of the DOR Receptor. [Related pubchem assays (depositor defined):AID1777, AID1786, AID2133]. Type of test: functional.
Test [6] concerns the target T2, Neuropeptide Y receptor type 1. The test can be described thus: IC50 of human NPY-Y1 blockers – cell-based, dose response (AID 1277). The class given is functional.
The next test addresses Mu-type opioid receptor (Homo sapiens, UniProt P35372). The test can be described thus: HTS Image-Based Screen for Agonists of the MOR Receptor. [Related pubchem assays (depositor defined):AID1777, AID1785, AID1786, AID2133]. Type of test: functional.
The target in test [7] is T3, Kappa-type opioid receptor. Type of test: functional. This is another data set of the same source.
Test [8] concerns the target T4, Delta-type opioid receptor. The test can be described thus: HTS Image-Based Screen for Antagonists of the DOR Receptor. [Related pubchem assays (depositor defined):AID1777, AID1785, AID1786, AID2133]. The class given is functional.
The target in test [9] is T1, Neuropeptide Y receptor type 2. The test can be described thus: IC50 for human NPY-Y2 blockade – cell-based, counter-screen for NPY-Y1 antagonist project, dose response (AID 1278). The class given is functional. For orientation: The purpose of a counterscreen is to sort out artefacts and off-target activity.
For test [10], the target named is T5, Heat shock factor protein 1 (Mus musculus, UniProt P38532).
T5 sequence (P38532 whole entry): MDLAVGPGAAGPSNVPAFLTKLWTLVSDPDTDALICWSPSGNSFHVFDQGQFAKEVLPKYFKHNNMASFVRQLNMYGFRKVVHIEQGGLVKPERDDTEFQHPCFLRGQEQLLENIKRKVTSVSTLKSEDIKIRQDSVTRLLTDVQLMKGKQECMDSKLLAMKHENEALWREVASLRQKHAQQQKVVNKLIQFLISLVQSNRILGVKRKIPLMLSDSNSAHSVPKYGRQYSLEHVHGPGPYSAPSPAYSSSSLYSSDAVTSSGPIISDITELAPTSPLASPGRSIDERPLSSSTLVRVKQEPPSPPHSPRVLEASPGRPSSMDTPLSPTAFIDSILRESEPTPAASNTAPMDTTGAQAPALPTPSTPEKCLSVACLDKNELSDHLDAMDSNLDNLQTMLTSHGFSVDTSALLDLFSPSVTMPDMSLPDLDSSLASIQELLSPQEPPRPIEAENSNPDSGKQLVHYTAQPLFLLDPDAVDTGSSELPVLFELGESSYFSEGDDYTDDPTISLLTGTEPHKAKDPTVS
As to the kind of experiment: decrease of HSF1-responsive luciferase luminescence – cell-based, NIH3T3, dose retest, confirmation (AID 2382).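 Note: NIH3T3 fibroblasts with HSF1-driven luciferase reporter stressed by proteasome inhibitor MG132; luminescence from HSF1-driven luciferase expression after 8 hours of MG132 stress.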 The class given is functional.

In the next test the target is Oxytocin receptor (Homo sapiens, UniProt P30559). As to the kind of experiment: Counterscreen for vasopressin 1 receptor (V1R) agonists: Fluorescence-based cell-based high throughput dose response assay for agonists of the Oxytocin Receptor (OXTR). [Related pubchem assays: 2435 (Primary screen (OXTR agonists in singlicate)), 434964 (Confirmation screen (V1R agonists in triplicate)), 434969 (Counterscreen (OXTR agonists in …. Type of test: functional.
Oxytocin receptor, sequence (P30559 whole entry): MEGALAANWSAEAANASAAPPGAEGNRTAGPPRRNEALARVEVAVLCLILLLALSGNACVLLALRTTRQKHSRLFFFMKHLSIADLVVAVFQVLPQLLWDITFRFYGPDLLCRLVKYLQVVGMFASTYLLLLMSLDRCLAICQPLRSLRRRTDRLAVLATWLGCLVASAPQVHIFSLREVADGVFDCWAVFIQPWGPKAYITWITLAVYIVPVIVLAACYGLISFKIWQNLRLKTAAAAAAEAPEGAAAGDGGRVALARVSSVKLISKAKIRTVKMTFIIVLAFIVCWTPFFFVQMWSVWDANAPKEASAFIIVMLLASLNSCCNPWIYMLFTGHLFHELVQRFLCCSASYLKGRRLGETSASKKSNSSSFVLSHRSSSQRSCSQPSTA

The nature of test [11]: Luminescence Cell-Based Dose Response to Identify Activators of Luciferase Translation or Activity in H4-C Neuroglioblastoma Cells. [Related pubchem assays: 1829 (Project Summary), 1814 (Primary HTS)]. Type of test: functional.
For the next test, the target named is Vasopressin V1a receptor (Homo sapiens, UniProt P37288). As to the kind of experiment: Fluorescence-based cell-based high throughput dose response screening assay for agonists of the vasopressin 1 receptor (V1R). Type of test: functional.
Vasopressin V1a receptor, sequence (P37288 whole entry): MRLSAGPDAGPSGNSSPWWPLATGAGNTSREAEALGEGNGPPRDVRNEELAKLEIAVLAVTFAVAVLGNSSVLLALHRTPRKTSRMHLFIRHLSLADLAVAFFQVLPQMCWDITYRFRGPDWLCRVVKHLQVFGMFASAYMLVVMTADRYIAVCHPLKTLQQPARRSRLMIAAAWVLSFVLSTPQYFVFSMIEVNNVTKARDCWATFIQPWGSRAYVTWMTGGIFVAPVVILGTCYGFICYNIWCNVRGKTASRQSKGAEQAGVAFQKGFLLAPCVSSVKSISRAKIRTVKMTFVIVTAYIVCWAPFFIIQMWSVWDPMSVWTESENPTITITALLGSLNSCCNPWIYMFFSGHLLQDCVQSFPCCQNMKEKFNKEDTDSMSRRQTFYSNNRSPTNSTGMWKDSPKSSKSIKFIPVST
The nature of test [12]: Luminescence Cell-Based Dose Confirmation to Identify Activators of 5'UTR Stem-Loop Driven Alpha-Synuclein mRNA Translation in H4 Neuroglioblastoma Cells. [Related pubchem assays: 1829 (Project Summary), 1814 (Primary HTS)]. The class given is functional.
Test [13] is described as follows: Luminescence Cell-Based Dose Response to Identify Activators of 5'UTR Stem-Loop Driven Prion Protein mRNA Translation in H4-C Neuroglioblastoma Cells. [Related pubchem assays: 1829 (Project Summary), 1814 (Primary HTS)]. The class given is functional.
For the next test, the system named is H4. The test can be described thus: Luminescence Cell-Based Dose Response HTS to Identify Activators of 5'UTR Stem-Loop Driven Prion Protein mRNA Translation in H4 Neuroglioblastoma Cells. [Related pubchem assays: 1829 (Project Summary), 1814 (Primary HTS)]. The note with it: Homo sapiens. The class given is functional.

The source made the active and inactive calls. A value given as a limit tells only on which side of the number the result lay.

T1 sequence (P49146 whole entry): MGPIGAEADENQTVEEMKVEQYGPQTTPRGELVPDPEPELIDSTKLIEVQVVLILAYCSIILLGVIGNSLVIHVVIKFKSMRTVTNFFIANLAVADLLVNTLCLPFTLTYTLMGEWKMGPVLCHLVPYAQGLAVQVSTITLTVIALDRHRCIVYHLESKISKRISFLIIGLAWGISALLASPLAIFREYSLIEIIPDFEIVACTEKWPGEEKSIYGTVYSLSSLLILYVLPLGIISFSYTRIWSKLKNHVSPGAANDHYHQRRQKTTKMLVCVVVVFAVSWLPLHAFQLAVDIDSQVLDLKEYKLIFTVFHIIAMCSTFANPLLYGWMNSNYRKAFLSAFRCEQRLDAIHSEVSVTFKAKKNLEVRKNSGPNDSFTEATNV
T3 sequence (P41145 whole entry): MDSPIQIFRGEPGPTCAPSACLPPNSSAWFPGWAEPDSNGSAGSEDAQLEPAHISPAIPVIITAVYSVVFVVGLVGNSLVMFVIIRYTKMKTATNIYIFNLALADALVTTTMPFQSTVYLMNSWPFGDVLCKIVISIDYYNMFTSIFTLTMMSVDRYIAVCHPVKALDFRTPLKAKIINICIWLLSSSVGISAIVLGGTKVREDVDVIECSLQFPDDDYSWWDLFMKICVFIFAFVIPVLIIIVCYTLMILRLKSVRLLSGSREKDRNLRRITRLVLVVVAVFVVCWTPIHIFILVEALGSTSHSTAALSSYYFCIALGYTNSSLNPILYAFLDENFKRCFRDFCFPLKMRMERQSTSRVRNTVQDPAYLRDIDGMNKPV
T4 sequence (P41143 whole entry): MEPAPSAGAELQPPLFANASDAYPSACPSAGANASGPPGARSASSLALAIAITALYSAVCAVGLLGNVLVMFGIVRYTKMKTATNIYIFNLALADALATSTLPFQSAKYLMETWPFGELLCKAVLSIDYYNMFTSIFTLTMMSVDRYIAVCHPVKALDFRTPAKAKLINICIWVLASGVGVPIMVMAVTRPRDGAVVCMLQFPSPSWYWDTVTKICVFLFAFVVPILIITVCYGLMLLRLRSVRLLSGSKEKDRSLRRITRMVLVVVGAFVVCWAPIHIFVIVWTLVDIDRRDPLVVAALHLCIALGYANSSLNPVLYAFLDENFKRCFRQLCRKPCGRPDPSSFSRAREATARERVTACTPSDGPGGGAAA
T2 sequence (P25929 whole entry): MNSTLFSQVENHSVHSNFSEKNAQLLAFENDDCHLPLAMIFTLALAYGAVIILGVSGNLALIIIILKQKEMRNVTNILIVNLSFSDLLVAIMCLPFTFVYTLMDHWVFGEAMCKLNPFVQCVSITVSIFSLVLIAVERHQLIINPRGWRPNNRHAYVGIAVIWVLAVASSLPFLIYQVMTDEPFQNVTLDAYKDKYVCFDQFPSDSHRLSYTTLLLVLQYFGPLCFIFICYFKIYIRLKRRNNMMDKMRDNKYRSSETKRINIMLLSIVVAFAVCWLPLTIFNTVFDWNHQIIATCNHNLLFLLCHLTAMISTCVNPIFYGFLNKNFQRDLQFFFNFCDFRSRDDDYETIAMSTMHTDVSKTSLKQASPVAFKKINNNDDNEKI
Mu-type opioid receptor, sequence (P35372 whole entry): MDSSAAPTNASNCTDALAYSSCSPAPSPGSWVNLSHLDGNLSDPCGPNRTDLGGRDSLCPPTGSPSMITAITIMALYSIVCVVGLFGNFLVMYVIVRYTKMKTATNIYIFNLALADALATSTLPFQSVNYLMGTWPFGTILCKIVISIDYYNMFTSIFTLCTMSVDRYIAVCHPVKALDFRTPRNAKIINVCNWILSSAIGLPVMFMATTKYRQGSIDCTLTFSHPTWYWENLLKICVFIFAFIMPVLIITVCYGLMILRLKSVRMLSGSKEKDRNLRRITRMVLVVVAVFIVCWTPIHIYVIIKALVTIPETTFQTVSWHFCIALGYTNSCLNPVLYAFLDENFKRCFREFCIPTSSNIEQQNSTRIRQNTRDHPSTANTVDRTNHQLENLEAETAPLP

Turning to `CN1CCC(Oc2ccccc2Sc2ccccc2)CC1`, the IC50 in test [1] is 17.5 µM (not active); in [2], 13.6 µM (not active).

In the case of `Cc1ccc(S(=O)(=O)NCc2ccc(C(=O)NCCCN3CCC(Cc4ccccc4)CC3)cc2)cc1`, the half-inhibitory concentration (IC50) in [3] was > 100 µM (active).

Consider `O=C(c1cnccn1)N(Cc1ccco1)C1(C(=O)NC2CCCCC2)CCCCC1`, for which the EC50 in test [4] was 2.39 µM; in [5] it was > 32 µM (inactive); at Mu-type opioid receptor it was > 32 µM (inactive); in test [7], 1.32 µM. In addition, the values for the 50% inhibitory concentration (IC50) in [6], in test [8] and in [9] were > 35 µM (not active), > 32 µM (inactive) and > 35 µM (not active), respectively.

`CCN1C(=S)SC(=O)C1=C1C=C(C)N(Cc2ccco2)C(C)=C1`: the EC50 is > 195 µM (not active) in test [10]; 16.7 µM (not active) on Oxytocin receptor; 0.263 µM (active) in [11]; 10.5 µM (not active) on Vasopressin V1a receptor; 0.287 µM (active) in test [12]; 0.313 µM (active) in [13]. For the same molecule, the EC50 in the test with H4 was < 0.1 µM (active).
